Results reported in patent US11021469B2, “Indoline sulfonamide inhibitors of DapE and NDM-1 and use of the same” (priority 2014, dated 2021).

Target: NDM-1 (Klebsiella pneumoniae, UniProt C7C422)
Assay: Inhibition of NDM-1 assay (CHROMACEF hydrolysis)
Type: biochemical
Details: pH 7, read-out: % NMD-1 Inhibition (5 μM)
Description: The ability of the compounds described herein to inhibit NDM-1 was determined in the following way.
A Substrate Working Solution was prepared from CRHROMACEF (6 μM) and Tween-20 (0.02% v/v) in water. An Enzyme Working Solution was prepared with NDM-1 (0.5 μg/mL), Hepes (0.1 M), pH 7 and Tween-20 (0.02% v/v). An Inhibitor Working Solution was prepared from 50 mM of the inhibitor in DMSO. The final assay conditions were 1 mL, Hepes (50 mM), pH 7, Tween-20 (0.02% v/v), CHROMACEF (3 uM), Δ35 NDM-1 (0.25 μg/mL). Extra zinc was omitted from these assays because extra ZnSO4 interferes with the metal binding groups in inhibitors.
An aliquot of the Inhibitor Working Solution was added to a polystyrene disposable cuvette to achieve a final concentration of 0-50 μM (in 1 mL final). Supplemental DMSO was added to reach a final volume of 4 μL. NDM-1 Working Solution (0.05 mL) was added to the cuvette and the inhibitor and enzyme were allowed to incubate for about 20 minutes. The reaction was initiated by added 0.5 mL Substrate Working Solution. The solution was mixed quickly, but gently to avoid bubble formation. CHROMACEF […] was recorded to start the reaction. The reaction was mixed fast, but gently. The change in absorbance ΔAbs442nm/min was measured for each inhibitor from the linear slope from each inhibitor concentration.

Sequence of NDM-1 (C7C422 36-270 limits assumed): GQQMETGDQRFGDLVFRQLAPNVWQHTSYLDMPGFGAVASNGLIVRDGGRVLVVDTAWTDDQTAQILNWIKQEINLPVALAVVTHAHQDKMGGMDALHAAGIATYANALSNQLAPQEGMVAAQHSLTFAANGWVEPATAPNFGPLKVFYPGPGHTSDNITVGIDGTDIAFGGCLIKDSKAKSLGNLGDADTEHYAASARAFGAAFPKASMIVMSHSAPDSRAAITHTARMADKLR

SMILES | inhibition at 5 µM [%]
CCNS(=O)(=O)c1cc(Br)cc2c1N(C(C)=O)CC2 | 16.8
CC(=O)N1CCc2cc(Br)cc(S(=O)(=O)NCCC(C)C)c21 | 62.7
CC(=O)N1CCc2cc(Br)cc(S(=O)(=O)NCc3ccccc3)c21 | 27.3
